This passage reports IC50 and Kd results from patent publication US20240327434A1, “FUSED TETRACYCLIC COMPOUND, PREPARATION METHOD THEREFOR AND APPLICATION THEREOF IN MEDICINE” (Jiangsu Hengrui Pharmaceuticals Co., Ltd., priority 2021, published 2024).

Experiment [1] deals with ERK phosphorylation of AGS cells. The experiment is described as follows: Inhibition of ERK phosphorylation of AGS cells (HTRF method). In kind it is cell-based. The note with it: Homo sapiens, 1 h compound incubation, phosphorylated ERK/total ERK ratio, read-out: AGS/ IC50 (nM), inhibitory activity for ERK phosphorylation. On the procedure: In the experiment, the inhibition effect of the compounds on ERK phosphorylation of the cells was detected, and the inhibition effect of the compounds disclosed herein on the KRAS target was evaluated according to the IC50.
AGS cells (Nanjing Cobioer, CBP60476) were cultured in RPMI1640 (Hyclone, SH30809.01) complete medium containing 10% fetal bovine serum. On the first day of the experiment, the AGS cells were seeded into a 96-well plate with complete medium at a density of 40,000 cells/well to form 190 μL of cell suspension per well. The plate was incubated overnight in a cell incubator at 37° C. with 5% CO2.
The next day, 10 μL of serially-diluted test compound prepared from the complete medium was added to each well. The final concentrations of the compound were 9 concentration points obtained by 5-fold serial dilution from 10 μM. A blank control containing 0.5% DMSO was set. The well plate was incubated in a cell incubator at 37° C. with 5% CO2 for 1 h. After completion of incubation, the 96-well cell culture plate was taken out, the medium was removed by pipetting, 200 μL PBS (Shanghai BasalMedia Technologies Co., Ltd., B320) was added to each well, and the cells were washed once. PBS was removed by pipetting, 50 μL of lysis buffer (Cisbio, 64KL1FDF) containing a blocking solution (blocking reagent, Cisbio, 64KB1AAC) was added to each well, and the well plate was lysed on a shaker for 40 min at room temperature with shaking. After lysis, the lysate was pipetted and mixed well, 16 μL of lysate was transferred to two HTRF 96-well assay plates (Cisbio, 66PL96100) per well, and then 4 μL of premixed phosphorylated ERK1/2 antibody solution (Cisbio, 64AERPEG) or 4 μL of premixed total ERK1/2 antibody solution (Cisbio, 64NRKPEG) was added to these two plates. The microplate was sealed with a sealing membrane, centrifuged for 1 min in a microplate centrifuge, and incubated overnight at room temperature in the dark. On the third day, the fluorescence values at an excitation wavelength of 337 nm and at emission wavelengths of 665 nm and 620 nm were read using an ENVISION multifunctional microplate reader (PerkinElmer, ENVISION).
Background: In TR-FRET formats the signal depends on donor and acceptor labels being close together.

For experiment [2], the system named is GP2d cells. The experiment is described as follows: Inhibition of 3D proliferation of GP2d cells (CellTiter-Glo 3D). In kind it is cell-based. The note with it: 120 h incubation, read-out: GP2d/ IC50 (nM), inhibitory activity for 3D proliferation. On the procedure:
(§1) The inhibition effect of the compounds disclosed herein on the KRAS target was evaluated by testing the 3D proliferation inhibition effect of the compounds disclosed herein on GP2d and AGS cells.
GP2d cells (Nanjing Cobioer, CBP60010) were cultured in a complete medium, namely DMEM/high glucose medium (Hyclone, SH30243.01) containing 10% fetal bovine serum (Corning, 35-076-CV). On the first day of the experiment, GP2d cells were seeded into a 96-well low adsorption plate (Corning, CLS7007-24EA) with complete medium at a density of 1,000 cells/well to form 90 μL of cell suspension per well. The plate was centrifuged at 2,000 rpm for 5 min at room temperature and then incubated overnight in a cell incubator at 37° C. with 5% CO2.
The next day, 10 μL of serially-diluted test compound prepared from the complete medium was added to each well. […] A blank control containing 0.5% DMSO was set. The well plate was incubated in a cell incubator at 37° C. with 5% CO2 for 120 h.
A general note: ATP-based viability assays read luminescence as a measure of living cells.

In experiment [3] the target is KRAS protein subtype G12D (Avi-KRAS-G12D) (Homo sapiens (Human), UniProt P01116, G12D). In words: SPR affinity for KRAS protein subtype G12D (Biacore 8K). Format: binding. The note with it: single-cycle kinetic mode, 1:1 model, read-out: G12D KD (unit mol/L). On the procedure: (§2) Biotinylated Avi-KRAS-WT or Avi-KRAS-G12D was diluted to 20 μg/mL with 1x HBS-P+(Cat. #BR1006-71) buffer containing 100 mM MgCl2, and then flowed through SA (Cat. #BR1005-31) biosensing chip channel 2 for 420 s to obtain a coupling level of approximately 5000-7000 RU. Then samples of small molecular compounds were injected for 120 s in an ascending order, and then were dissociated for 720 s. The experiment employed a single-cycle kinetic mode. Reaction signals were detected in real time using a Biacore 8K instrument to obtain association and dissociation curves. After the experiment ended, data analysis was performed using Biacore 8K evaluation software, and affinity data were obtained by performing data fitting using a 1:1 model.
In general terms: SPR reads the build-up and loss of mass on a sensor chip optically.

In experiment [4] the target is KRAS protein subtype WT (Avi-KRAS-WT) (Homo sapiens (Human), UniProt P01116). The experiment is described as follows: SPR affinity for KRAS protein subtype WT (Biacore 8K). In kind it is binding. Particulars: single-cycle kinetic mode, 1:1 model, read-out: WT KD (unit mol/L). On the procedure: as §2
The test system of experiment [5] is AGS cells. The experiment is described as follows: Inhibition of 3D proliferation of AGS cells (CellTiter-Glo 3D). In kind it is cell-based. Particulars: Homo sapiens, 120 h incubation, read-out: AGS/ IC50 (nM), inhibitory activity for 3D proliferation. On the procedure: as §1
AGS cells (Nanjing Cobioer, CBP60476) were cultured in a complete medium, namely RPMI1640 medium (Hyclone, SH30809.01) containing 10% fetal bovine serum (Corning, 35-076-CV). On the first day of the experiment, the AGS cells were seeded into a 96-well low adsorption plate (Corning, CLS7007-24EA) at a density of 1,000 cells/well using complete medium to form 90 μL of cell suspension per well. The plate was centrifuged at 2,000 rpm for 5 min at room temperature and then incubated overnight in a cell incubator at 37° C. with 5% CO2.
The next day, 10 μL of serially-diluted test compound prepared from the complete medium was added to each well. […] On the seventh day, the 96-well cell culture plate was taken out, 50 μL CellTiter-Glo® 3D reagent (Promega, G9682) was added into each well, the plate was shaken at room temperature for 25 min, pipetted and mixed well, 50 μL of the solution was transferred into a white impermeable 96-well plate (PE, 6005290), and the luminescence signal values were read using a multifunctional microplate reader (PerkinElmer, ENVISION).

Chain of KRAS protein subtype WT (Avi-KRAS-WT) (P01116 whole entry): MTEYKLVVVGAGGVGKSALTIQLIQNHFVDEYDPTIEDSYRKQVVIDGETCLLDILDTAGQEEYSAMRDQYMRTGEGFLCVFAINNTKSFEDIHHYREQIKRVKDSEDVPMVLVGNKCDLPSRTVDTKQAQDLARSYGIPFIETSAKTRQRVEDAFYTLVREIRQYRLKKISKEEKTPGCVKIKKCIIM
Chain of KRAS protein subtype G12D (Avi-KRAS-G12D) (P01116 whole entry G12D): as the sequence (P01116 whole entry) above, with G12D counted along it

As for `CCc1cccc2cc(O)cc(-c3nc4c5c(nc(OC[C@@]67CCCN6C[C@H](F)C7)nc5c3F)N3CC5CCC(N5)C3CO4)c12` (mixture of isomers) [Diastereomeric (1:1) mixture of 4-p1 and 4-p2, 5-Ethyl-4-(1-fluoro-12-(((2R,7aS)-2-fluorotetrahydro-1H-pyrrolizin-7a(5H)-yl)methoxy)-5a,6,7,8,9,10-hexahydro-5H-4-oxa-3,10a,11,13,14-pentaaza-6,9-methanonaphtho[1,8-ab]heptalen-2-yl)naphthalen-2-ol], the IC50 in experiment [1] was 1.35 nM.

For `CCc1c(F)ccc2cc(O)cc(-c3nc4c5c(nc(OCC6(CN7C[C@H]8C[C@H]8[C@H]7CO)CC6)nc5c3F)N3C[C@H]5CC[C@H](N5)[C@H]3CO4)c12` [Example 22, 5-Ethyl-6-fluoro-4-((5aS,6S,9R)-1-fluoro-12-((1-(((1R,2S,5S)-2-(hydroxymethyl)-3-azabicyclo[3.1.0]hex-3-yl)methyl)cyclopropyl)methoxy)-5a,6,7,8,9,10-hexahydro-5H-4-oxa-3,10a, 11,13,14-pentaaza-6,9-methanonaphtho[1,8-ab]heptalen-2-yl)naphthalen-2-ol], the IC50 in experiment [2] worked out at 9.6 nM; in experiment [1], 10.2 nM.

For the compound `CCc1cccc2cc(O)cc(-c3cc4c5c(nc(OC[C@@]67CCCN6C[C@H](F)C7)nc5c3F)N3CC5CCC(N5)C3CO4)c12` (mixture of isomers) [Diastereomeric (1:1) mixture of 11-p1 and 11-p2, 5-Ethyl-4-(1-fluoro-13-(((2R,7aS)-2-fluorotetrahydro-1H-pyrrolizin-7a(5H)-yl)methoxy)-5a,6,7,8,9,10-hexahydro-5H-6,9-epiminoazepino[2′,1′: 3,4][1,4]oxazepino[5,6,7-de]quinazolin-2-yl) naphthalen-2-ol], the results for the IC50 in experiment [2] and in experiment [1] were 62.5 nM and 15.6 nM, respectively.

Turning to `CCc1c(F)ccc2cc(O)cc(-c3nc4c5c(nc(OC[C@@]67CCCN6C[C@H](F)C7)nc5c3F)N3C[C@H]5CC[C@H](N5)[C@H]3CO4)c12` [Example 9-p1, 5-Ethyl-6-fluoro-4-((5aS,6S,9R)-1-fluoro-12-(((2R,7aS)-2-fluorotetrahydro-1H-pyrrolizin-7a(5H)-yl)methoxy)-5a,6,7,8,9,10-hexahydro-5H-4-oxa-3,10a, 11,13,14-pentaaza-6,9-methanonaphtho[1,8-ab]heptalen-2-yl)naphthalen-2-ol], the Kd in experiment [3] is 0.03 nM; in experiment [4] it was 1.54 nM.

Take `Oc1cc(-c2cc3nc(OC[C@@]45CCCN4C[C@H](F)C5)nc4c3c(n2)OCC2C3CCC(CN42)N3)c2c(F)cccc2c1` (mixture of isomers) [Diastereomeric (1:1) mixture of 1-p1 and 1-p2, 5-Fluoro-4-(12-(((2R,7aS)-2-fluorotetrahydro-1 H-pyrrolizin-7a(5H)-yl)methoxy)-5a,6,7,8,9,10-hexahydro-5H-4-oxa-3,10a,11,13,14-pentaaza-6,9-methanonaphtho[1,8-ab]heptalen-2-yl) naphthalen-2-ol]: the IC50 in experiment [1] stood at 94.1 nM.

As for `Oc1cc(-c2nc3c4c(nc(OC[C@@]56CCCN5C[C@H](F)C6)nc4c2F)N2C[C@H]4CC[C@H](N4)[C@H]2CO3)c2c(F)c(F)ccc2c1` [Example 8-p1, 5,6-Difluoro-4-((5aS,6S,9R)-1-fluoro-12-(((2R,7aS)-2-fluorotetrahydro-1H-pyrrolizin-7 a(5H)-yl)methoxy)-5a,6,7,8,9,10-hexahydro-5H-4-oxa-3,10a,11,13,14-pentaaza-6,9-methanonaphtho[1,8-ab]heptalen-2-yl)naphthalen-2-ol], the values for the Kd in experiment [3] and in experiment [4] were 0.1 nM and 3.8 nM, respectively.

Regarding `CCc1cccc2cc(O)cc(-c3cc4nc(OC[C@@]56CCCN5C[C@H](F)C6)nc5c4c(n3)OCC3C4CCC(CN53)N4)c12` (mixture of isomers) [Diastereomeric (1:1) mixture of 2-p1 and 2-p2, 5-Ethyl-4-(12-(((2R,7aS)-2-fluorotetrahydro-1H-pyrrolizin-7a(5H)-yl)methoxy)-5a,6,7,8,9,10-hexahydro-5H-4-oxa-3,10a,11,13,14-pentaaza-6,9-methanonaphtho[1,8-ab]heptalen-2-yl) naphthalen-2-ol], the Kd is 0.4 nM in experiment [3] and 32.4 nM in experiment [4].

In the case of `CCc1cccc2cc(O)cc(-c3nc4c5c(nc(OC[C@@]67CCCN6C[C@H](F)C7)nc5c3F)N3C[C@H]5CC[C@H](N5)[C@H]3CO4)c12` [Example 4-p1, 5-Ethyl-4-((5aS,6S,9R)-1-fluoro-12-(((2R,7aS)-2-fluorotetrahydro-1H-pyrrolizin-7a(5H)-yl)methoxy)-5a,6,7,8,9,10-hexahydro-5H-4-oxa-3,10a, 11,13,14-pentaaza-6,9-methanonaphtho[1,8-ab]heptalen-2-yl)naphthalen-2-ol], the Kd in experiment [3] was determined as 0.14 nM; in experiment [4] it was 3.4 nM.

Turning to `Oc1cc(Cl)c(C2CC2)c(-c2nc3c4c(nc(OC[C@@]56CCCN5C[C@H](F)C6)nc4c2F)N2C[C@H]4CC[C@H](N4)[C@H]2CO3)c1` [Example 6-p1, 3-Chloro-4-cyclopropyl-5-((5aS,6S,9R)-1-fluoro-12-(((2R,7aS)-2-fluorotetrahydro-1H-pyrrolizin-7a(5H)-yl)methoxy)-5a,6,7,8,9,10-hexahydro-5H-4-oxa-3,10a,11,13,14-pentaaza-6,9-methanonaphtho[1,8-ab]heptalen-2-yl)phenol], the Kd in experiment [3] was found to be 0.1 nM; in experiment [4], 7 nM.

Consider `CCc1c(F)ccc2cc(O)cc(-c3nc4c5c(nc(OCC6(CN7CC8CC8(CO)C7)CC6)nc5c3F)N3C[C@H]5CC[C@H](N5)[C@H]3CO4)c12` (stereo partly drawn) [Example 23, 5-Ethyl-6-fluoro-4-((5aS,6S,9R)-1-fluoro-12-((1-((1-(hydroxymethyl)-3-azabicyclo[3.1.0]hex-3-yl)methyl)cyclopropyl)methoxy)-5a,6,7,8,9,10-hexahydro-5H-4-oxa-3,10a, 11,13,14-pentaaza-6,9-methanonaphtho[1,8-ab]heptalen-2-yl)naphthalen-2-ol], for which the IC50 in experiment [2] amounted to 8.8 nM; in experiment [5], 108 nM; in experiment [1], 4 nM.
